13 molecules from article PMC8635125, “A Novel Dibenzoxazepine Attenuates Intracellular Salmonella Typhimurium Oxidative Stress Resistance” (Microbiology Spectrum, 2021) can be followed below.

Data set [1] relates to intracellular S. Typhimurium in RAW264.7 macrophages. Put plainly: microbe, parasite or virus in culture. The data set is classed as cell-based, Salmonella enterica serovar Typhimurium. The settings on record: for survival of intracellular Salmonella in macrophages, antibiotic alone: RAW264.7, 24 h. On the procedure: (§1) Overnight cultures of RFP-expressing S. Typhimurium were prepared for infection by 1:100 dilution in fresh LB broth and incubation for 2 h at 37°C. The bacteria were then collected by centrifugation at 6,000 × g for 3 min and suspended in phosphate-buffered saline (PBS; pH 7.2) to an optical density of 0.6 at 600 nm, which was equivalent to 5 × 10^8 CFU/mL. RAW264.7 macrophages were seeded in 96-well black clear-bottom plates (Greiner) and incubated for 20 h followed by infection with RFP-expressing S. Typhimurium at a multiplicity of infection (MOI) of 50 for 1 h. […] Afterward, the cells were washed and stained with CellTracker Green (Thermo Fisher Scientific) for 30 min in serum-free DMEM followed by fixation in 3.7% formaldehyde (Sigma-Aldrich) for 20 min and stained with 0.2 mg/L DAPI (4′,6-diamidino-2-phenylindole; AAT Bioquest) for 30 min. Images of individual wells were captured and analyzed using a high-content imaging system (ImageXpress Micro 4; Molecular Devices). The CC50 and 50% effective concentration (EC50) values against intracellular bacteria of each compound were determined using CalcuSyn software (Biosoft).

Data set [2] deals with S. Typhimurium ATCC 14028. Put plainly: MIC assay (broth microdilution). The data set is classed as cell-based, Salmonella Typhimurium. The settings on record: for MIC: Salmonella enterica; for R/I/S: ATCC 14028, CLSI criteria. On the procedure: (§2) The minimal inhibitory concentration (MIC) of each test compound against the individual bacterial strains was determined by the broth microdilution method following the guidelines recommended by the Clinical and Laboratory Standards Institute (CLSI) ([27]).
In general terms: In broth dilution the organism is exposed to a series of concentrations in liquid medium.

For data set [3], the system named is S. Typhimurium NL08.10. Put plainly: MIC assay (broth microdilution). The data set is classed as cell-based, Salmonella Typhimurium. The settings on record: Table S1(A); for MIC: Salmonella enterica, TYPHIMURIUM, NL08.10, read-out: MIC; for R/I/S: NL08.10, CLSI criteria. On the procedure: as §2
Data set [4] deals with S. Typhimurium 0911R. The experiment in a line: microbe, parasite or virus in culture. As to conditions: for MIC: Salmonella enterica, TYPHIMURIUM; for R/I/S: Table S1(A), 0911R, CLSI criteria. The data set is classed as cell-based, Salmonella Typhimurium. On the procedure:
as §2

For data set [5], the system named is S. Typhimurium SA10. The experiment in a line: MIC assay (broth microdilution). The settings on record: Table S1(B); for MIC: Salmonella enterica, TYPHIMURIUM, SA10; for R/I/S: SA10, CLSI criteria. The data set is classed as cell-based, Salmonella Typhimurium. On the procedure:
as §2

For data set [6], the system named is S. Typhimurium SB10. Put plainly: MIC assay (broth microdilution). In kind it is cell-based, Salmonella Typhimurium. The settings on record: Table S1(B); for MIC: Salmonella enterica, TYPHIMURIUM, SB10, read-out: MIC; for R/I/S: SB10, CLSI criteria. As for the experimental part:
as §2

Data set [7] can be described thus: HCA cytotoxicity toward infected macrophages (nuclear staining). In kind it is cell-based, murine. As to conditions: mouse, RAW264.7 macrophages infected with S. Typhimurium, infected RAW264.7 cells, read-out: 50% cytotoxic concentration (CC50) toward macrophages. On the procedure: as §1
Data set [8] concerns ROS levels in Salmonella-infected RAW264.7 cells. The experiment in a line: Analysis of ROS in macrophages (H2DCFDA). As to conditions: 1 h; SW14 at concentrations up to 8 μM. The data set is classed as cell-based, murine. As for the experimental part: RAW264.7 macrophages were seeded in 96-well black plates and infected by S. Typhimurium ATCC 14028 at an MOI of 25 for 1 h. After infection, the cells were washed, exposed to 100 mg/L gentamicin for 1 h, washed with warm Krebs-Ringer phosphate buffer (KRP buffer; 120 mM NaCl, 5 mM KCl, 1.7 mM KH2PO4, 8.3 mM Na2HPO4, 10 mM glucose, 1 mM CaCl2, 1.5 mM MgCl2, pH 7.3) and stained with H2DCFDA at 37°C with 5% CO2 for 45 min. The cells were then washed with KRP buffer and treated with SW14 or PMA at the desired concentrations in KRP buffer with 10% FBS. Fluorescence signals at 488/525 nm (excitation/emission) were measured using a SpectraMax M5 Microplate Reader (Molecular Devices).

Where [9] appears, read: Table S1(A), ATCC 14028, read-out: MIC.
[10] abbreviates: Table S2, CAMH medium, read-out: MIC.
The mark [11] stands for this setting: Table S2, LB medium, read-out: MIC.
[12] abbreviates: Table S2, LPM medium, read-out: MIC.

Values after ≈ are worked out from the molar mass of the structure shown. Where two headings read alike, the source gives them in different places.

As for `Cn1cnc(N)c2ncnc1-2` [3-MA, 3-methyladenine], the “relative number of intracellular bacteria” value in data set [1] (3-MA 10 mM, infected RAW264.7) was “increased significantly”.
As for `CC1(C)S[C@@H]2[C@H](NC(=O)[C@H](N)c3ccccc3)C(=O)N2[C@H]1C(=O)O` [Ampicillin], the MIC in data set [2] (setting [9]) is 16 µg/mL (≈ 45.8 µM); in data set [2] (setting [10]), 4 µg/mL (≈ 11.4 µM); in data set [2] (setting [11]), 4 µg/mL (≈ 11.4 µM); in data set [2] (setting [12]), 1 µg/mL (≈ 2.86 µM); in data set [3], above 64 µg/mL; in data set [4], above 64 µg/mL. The R/I/S entry is “I” in data set [2] (Table S1(A)), “R” in data set [3] and “R” in data set [4].
`O=C(N[C@H](CO)[C@H](O)c1ccc([N+](=O)[O-])cc1)C(Cl)Cl` [Chloramphenicol]: the MIC in data set [2] (setting [9]) is 16 µg/mL (≈ 49.5 µM); in data set [3] it was 32 µg/mL (≈ 99 µM). Also, the R/I/S entry in data set [2] (Table S1(A)) was “I”; in data set [3], “R”; in data set [4] it was “R”.
With `O=C(O)c1cn(C2CC2)c2cc(N3CCNCC3)c(F)cc2c1=O` [Ciprofloxacin, ciprofloxacin], the “survival of intracellular Salmonella in macrophages, antibiotic alone” value in data set [1] (HCA) is reported as “inhibited the survival of intracellular Salmonella in macrophages in a dose-dependent manner”.
With `CNC(C)C1CCC(N)C(OC2C(N)CC(N)C(OC3OCC(C)(O)C(NC)C3O)C2O)O1` (stereo not drawn) [Gentamicin, gentamicin], the MIC in data set [5] amounted to 0.5 µg/mL (≈ 1.05 µM); in data set [2] (setting [9]) it was 2 µg/mL (≈ 4.19 µM); in data set [2] (Table S1(B), ATCC 14028, read-out: MIC), 2 µg/mL (≈ 4.19 µM); in data set [6] it was 1 µg/mL (≈ 2.09 µM); in data set [3], 2 µg/mL (≈ 4.19 µM). Also, the R/I/S entry in data set [5], in data set [2] (Table S1(A)), in data set [2] (Table S1(B)), in data set [6], in data set [3] and in data set [4] was “S” in each case.
Take `CN1CCN(C2=Nc3ccccc3Oc3ccc(Cl)cc32)CC1` [Loxapine, loxapine]: the “selectivity index (SI; CC50/EC50)” value in data set [1] (CC50 RAW264.7 / EC50 intracellular Salmonella) is on record as 16.3. Besides, in data set [1] (Salmonella enterica, RFP-expressing S. Typhimurium in RAW264.7, 24 h, with gentamicin 20 mg/L, HCA, read-out: 50% effective concentration (EC50) against intracellular Salmonella), the EC50 was determined as 5.4 µM. In addition, the CC50 at 24 h in data set [7] worked out at 88.2 µM.
In the case of `CC1COc2c(N3CCN(C)CC3)c(F)cc3c(=O)c(C(=O)O)cn1c23` (stereo not drawn) [Ofloxacin], the values for the MIC in data set [5], in data set [2] and in data set [6] were 8 µg/mL (≈ 22.1 µM), below 0.125 µg/mL and 8 µg/mL (≈ 22.1 µM), respectively. Also, the R/I/S result in data set [5] is on record as “R”; in data set [2] (Table S1(B)), “S”; in data set [6] it was “R”.
In the case of `CCCCCCCCCCCCCC(=O)O[C@@H]1[C@@H](C)[C@@]2(O)[C@@H](C=C(CO)C[C@]3(O)C(=O)C(C)=C[C@@H]23)[C@@H]2C(C)(C)[C@]12OC(C)=O` [PMA, phorbol 12-myristate 13-acetate], the “ROS level (H2DCFDA fluorescence signal) in infected macrophages” value in data set [8] is on record as “significantly elevated”.
For `CO[C@H]1/C=C/O[C@@]2(C)Oc3c(C)c(O)c4c(O)c(c(/C=N/N5CCN(C)CC5)c(O)c4c3C2=O)NC(=O)/C(C)=C\C=C\[C@H](C)[C@H](O)[C@@H](C)[C@@H](O)[C@@H](C)[C@H](OC(C)=O)[C@@H]1C` [Rifampicin], the MIC in data set [2] (setting [10]) was determined as 16 µg/mL (≈ 19.4 µM); in data set [2] (setting [11]), 16 µg/mL (≈ 19.4 µM); in data set [2] (setting [12]) it was 4 µg/mL (≈ 4.86 µM).
Turning to `[H]/N=C(/N)N[C@H]1[C@H](O)[C@@H](O)[C@H](O[C@@H]2O[C@@H](C)[C@](O)(C=O)[C@H]2O[C@@H]2O[C@@H](CO)[C@H](O)[C@@H](O)[C@@H]2NC)[C@@H](N/C(N)=N\[H])[C@@H]1O` [Streptomycin], the values for the MIC in data set [2] (setting [9]), in data set [3] and in data set [4] were 32 µg/mL (≈ 55 µM), above 64 µg/mL and above 64 µg/mL, respectively.
Regarding `CN(C)[C@@H]1C(O)=C(C(N)=O)C(=O)[C@@]2(O)C(O)=C3C(=O)c4c(O)cccc4[C@@](C)(O)[C@H]3C[C@@H]12` [Tetracycline], the MIC in data set [2] (setting [9]) amounted to 8 µg/mL (≈ 18 µM). The R/I/S entry in data set [2] (Table S1(A)) is given as “I”; in data set [3], “R”; in data set [4] it was “R”.
On to `CN[C@H](CC(C)C)C(=O)N[C@H]1C(=O)N[C@@H](CC(N)=O)C(=O)N[C@H]2C(=O)N[C@H]3C(=O)N[C@H](C(=O)N[C@H](C(=O)O)c4cc(O)cc(O)c4-c4cc3ccc4O)[C@H](O)c3ccc(c(Cl)c3)Oc3cc2cc(c3O[C@@H]2O[C@H](CO)[C@@H](O)[C@H](O)[C@H]2O[C@H]2C[C@](C)(N)[C@H](O)[C@H](C)O2)Oc2ccc(cc2Cl)[C@H]1O` [Vancomycin], for which the MIC in data set [2] (Table S2, CAMH medium) is 2050 µg/mL (≈ 1410 µM); in data set [2] (Table S2, LB medium), 512 µg/mL (≈ 353 µM); in data set [2] (Table S2, LPM medium) it was 128 µg/mL (≈ 88.3 µM).
As to `C=CC1=C(C(=O)O)N2C(=O)[C@@H](NC(=O)/C(=N\OCC(=O)O)c3csc(N)n3)[C@H]2SC1` [cefixime], the “survival of intracellular Salmonella in macrophages, antibiotic alone” value in data set [1] (HCA) is “inhibited the survival of intracellular Salmonella in macrophages in a dose-dependent manner”.
